Measurements as given in patent US20250152781A1, “TISSUE ENGINEERING AND DRUG DELIVERY DEVICE” (Ohio State Innovation Foundation, priority 2022, published 2025).

Test: Diffusive release of Rose Bengal through sintered electrospun polymer capsule wall in PBS
Type: physicochemical
Description: To create a generic advantage that dramatically enhances the long-term drug delivery properties of electrospun scaffolds beyond those currently available via electrospinning alone. A little-known aspect of materials processing is that the shrinkage of high surface area polymers (e.g., in electrospun or electrosprayed form) can be used to provide higher density polymers. In the context of electrospun tissue engineering scaffolds, this phenomenon can be used to create relatively dense material from polymer compositions that would be difficult—if not impossible—to create via extrusion. The relatively dense material then creates a solid barrier through which diffusion of the internally-held drug can occur. The simplest version of this process involves creating a hollow tube via electrospinning (FIG. 1), sintering it to full or nearly-full density (thus eliminating open porosity, see FIG. 2), and then inserting the drug of interest contained with the appropriate solvent. Once this is complete, the ends of the tube can be heat-sealed (FIG. 3) using commonly available, purpose-built equipment designed and manufactured for the purpose of heat-sealing plastics of nearly any chemical composition. […]

drug release rate of Rose Bengal through 95% PCL-5% PET wall (95% PCL-5% polyethylene terephthalate wall formed by electrospinning then sintering to full density, after 30+ days of release (FIG. 5)): above 10 μg/day | release rate of Rose Bengal through PCL capsule wall (PCL wall formed by electrospinning then sintering to full density, after 120 days of exposure to 37° C. phosphate-buffered saline (FIG. 4)): 9 to 10 µg/day
SMILES: O=C([O-])c1c(Cl)c(Cl)c(Cl)c(Cl)c1-c1c2cc(I)c(=O)c(I)c-2oc2c(I)c([O-])c(I)cc12.[Na+].[Na+] [Rose Bengal]
